Biological target: T1, rat CB2 receptor (rCB2) (Rattus norvegicus, UniProt Q9QZN9)
T1 sequence (Q9QZN9 1-360): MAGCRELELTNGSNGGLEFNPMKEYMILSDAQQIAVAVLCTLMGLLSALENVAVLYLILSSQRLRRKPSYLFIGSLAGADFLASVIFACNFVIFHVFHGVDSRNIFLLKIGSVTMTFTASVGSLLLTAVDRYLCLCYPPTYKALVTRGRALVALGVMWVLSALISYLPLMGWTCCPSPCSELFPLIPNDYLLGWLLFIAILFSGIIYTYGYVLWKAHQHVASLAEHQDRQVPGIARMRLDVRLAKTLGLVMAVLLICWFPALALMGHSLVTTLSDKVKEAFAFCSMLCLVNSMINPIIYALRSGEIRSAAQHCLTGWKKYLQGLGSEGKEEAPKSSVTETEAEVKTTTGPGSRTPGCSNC

## CCN1CCn2c(-c3ccc(Cl)cc3)nc(C(=O)N[C@H](CO)C(C)(C)C)c2C1 [Compound 161, (S)-3-(4-chlorophenyl)-7-ethyl-N-(1-hydroxy-3,3-dimethylbutan-2-yl)-5,6,7,8-tetrahydroimidazo[1,5-a]pyrazine-1-carboxamide]
  EC50: 10 to 100 nM

## CC(C)CCNC(=O)c1nc(-c2ccc(Cl)cc2)n2c1CN(C(=O)C1CC1)CC2 [Compound 131, 3-(4-chlorophenyl)-7-(cyclopropanecarbonyl)-N-isopentyl-5,6,7,8-tetrahydroimidazo[1,5-a]pyrazine-1-carboxamide]
  EC50: 10 to 100 nM

## CNC(=O)[C@@H](NC(=O)c1nc(-c2cccc(C(F)(F)F)c2)n2c1CNCC2)C(C)(C)C [Compound 3, (S)-N-(3,3-dimethyl-1-(methylamino)-1-oxobutan-2-yl)-3-(3-(trifluoromethyl)phenyl)-5,6,7,8-tetrahydroimidazo[1,5-a]pyrazin-1-carboxamide]
  EC50: 10 to 100 nM

## CC(C)CN1CCn2c(-c3ccccc3)nc(C(=O)N[C@@H](C)c3ccccc3)c2C1 [Compound 145, (S)-7-isobutyl-3-phenyl-N-(1-phenylethyl)-5,6,7,8-tetrahydroimidazo[1,5-a]pyrazine-1-carboxamide]
  EC50: 10 to 100 nM

## CNC(=O)[C@@H](NC(=O)c1nc(-c2ccc(F)c(C)c2)n2c1CNCC2)C(C)(C)C [Compound 7, (S)-N-(3,3-dimethyl-1-(methylamino)-1-oxobutan-2-yl)-3-(4-fluoro-3-methylphenyl)-5,6,7,8-tetrahydroimidazo[1,5-a]pyrazin-1-carboxamide]
  EC50: 10 to 100 nM

## CC(C)CN1CCn2c(-c3ccccc3)nc(C(=O)N[C@@H](C)C(C)(C)C)c2C1 [Compound 53, (S)-N-(3,3-dimethylbutan-2-yl)-7-isobutyl-3-phenyl-5,6,7,8-tetrahydroimidazo[1,5-a]pyrazine-1-carboxamide]
  EC50: 10 to 100 nM

## CC(C)(C)CNC(=O)c1nc(-c2ccccc2)n2c1CN(S(=O)(=O)c1ccc(F)cc1)CC2 [Compound 103, 7-(4-fluorophenylsulfonyl)-N-neopentyl-3-phenyl-5,6,7,8-tetrahydroimidazo[1,5-a]pyrazine-1-carboxamide]
  EC50: 10 to 100 nM

## CNC(=O)[C@@H](NC(=O)c1nc(C2=CCC(C)CC2)n2c1CN(C)CC2)C(C)(C)C (stereo partly drawn) [Compound 270, N-((S)-3,3-dimethyl-1-(methylamino)-1-oxobutan-2-yl)-7-methyl-3-(4-methylcyclohex-1-enyl)-5,6,7,8-tetrahydroimidazo[1,5-a]pyrazine-1-carboxamide]
  EC50: 10 to 100 nM

## CC(C)CN1CCn2c(-c3ccccc3)nc(C(=O)N[C@@H](CO)C(C)(C)C)c2C1 [Compound 68, (R)-N-(1-hydroxy-3,3-dimethylbutan-2-yl)-7-isobutyl-3-phenyl-5,6,7,8-tetrahydroimidazo[1,5-a]pyrazine-1-carboxamide]
  EC50: 0.1 to 10 nM

## Cc1noc([C@@H](NC(=O)c2nc(-c3ccccc3)n3c2CN(CC(C)C)CC3)C(C)(C)C)n1 [Compound 90, (S)-N-(2,2-dimethyl-1-(3-methyl-1,2,4-oxadiazol-5-yl)propyl)-7-isobutyl-3-phenyl-5,6,7,8-tetrahydroimidazo[1,5-a]pyrazine-1-carboxamide]
  EC50: 0.1 to 10 nM

## CNC(=O)[C@@H](NC(=O)c1nc(C2=CCNCC2)n2c1CN(C)CC2)C(C)(C)C [Compound 274, (S)-N-(3,3-dimethyl-1-(methylamino)-1-oxobutan-2-yl)-7-methyl-3-(1,2,3,6-tetrahydropyridin-4-yl)-5,6,7,8-tetrahydroimidazo[1,5-a]pyrazine-1-carboxamide]
  EC50: 10 to 100 nM

## CNC(=O)[C@@H](NC(=O)c1nc(-c2ccccc2)n2c1CN(C(=O)C(C)(C)C)CC2)C(C)(C)C [Compound 190, (S)-N-(3,3-dimethyl-1-(methylamino)-1-oxobutan-2-yl)-3-phenyl-7-pivaloyl-5,6,7,8-tetrahydroimidazo[1,5-a]pyrazine-1-carboxamide]
  EC50: 10 to 100 nM

## Cc1noc([C@@H](NC(=O)c2nc(-c3ccccc3)n3c2CN(C2CC2)CC3)C(C)(C)C)n1 [Compound 198, (S)-7-cyclopropyl-N-(2,2-dimethyl-1-(3-methyl-1,2,4-oxadiazol-5-yl)propyl)-3-phenyl-5,6,7,8-tetrahydroimidazo[1,5-a]pyrazine-1-carboxamide]
  EC50: 0.1 to 10 nM

## CNC(=O)[C@@H](NC(=O)c1nc(-c2ccc(C)c(F)c2)n2c1CN(C)CC2)C(C)(C)C [Compound 240, (S)-N-(3,3-dimethyl-1-(methylamino)-1-oxobutan-2-yl)-3-(3-fluoro-4-methylphenyl)-7-methyl-5,6,7,8-tetrahydroimidazo[1,5-a]pyrazine-1-carboxamide]
  EC50: 10 to 100 nM

## CNC(=O)[C@@H](NC(=O)c1nc(-c2ccccc2)n2c1CN(Cc1ccco1)CC2)C(C)(C)C [Compound 64, (S)-N-(3,3-dimethyl-1-(methylamino)-1-oxobutan-2-yl)-7-(furan-2-ylmethyl)-3-phenyl-5,6,7,8-tetrahydroimidazo[1,5-a]pyrazine-1-carboxamide]
  EC50: 10 to 100 nM

## Cc1ccc(-c2nc(C(=O)N[C@H](c3nc(C)no3)C(C)(C)C)c3n2CCCNC3)c(F)c1 [Compound 520, (S)-N-(2,2-dimethyl-1-(3-methyl-1,2,4-oxadiazol-5-yl)propyl)-3-(2-fluoro-4-methylphenyl)-6,7,8,9-tetrahydro-5H-imidazo[1,5-a][1,4]diazepine-1-carboxamide]
  EC50: 10 to 100 nM

## CNC(=O)[C@@H](NC(=O)c1nc(/C=C/Cc2ccccc2)n2c1CN(C)CCC2)C(C)(C)C [Compound 458, (S,E)-N-(3,3-dimethyl-1-(methylamino)-1-oxobutan-2-yl)-8-methyl-3-(3-phenylprop-1-enyl)-6,7,8,9-tetrahydro-5H-imidazo[1,5-a][1,4]diazepine-1-carboxamide]
  EC50: 10 to 100 nM

## C[C@@H](NC(=O)c1nc(-c2ccccc2)n2c1CN(C(=O)C1CCOC1)CC2)C1CCCCC1 (stereo partly drawn) [Compound 139, N-((R)-1-cyclohexylethyl)-3-phenyl-7-(tetrahydrofuran-3-carbonyl)-5,6,7,8-tetrahydroimidazo[1,5-a]pyrazine-1-carboxamide]
  EC50: 10 to 100 nM

## CNC(=O)[C@@H](NC(=O)c1nc(-c2cc(C)ccc2F)n2c1CN(C)CC2)C(C)(C)C [Compound 251, (S)-N-(3,3-dimethyl-1-(methylamino)-1-oxobutan-2-yl)-3-(2-fluoro-5-methylphenyl)-7-methyl-5,6,7,8-tetrahydroimidazo[1,5-a]pyrazine-1-carboxamide]
  EC50: 10 to 100 nM

## CNC(=O)[C@H](CC(C)C)NC(=O)c1nc(-c2ccc(Cl)cc2F)n2c1CN(C)CC2 [Compound 276, (S)-3-(4-chloro-2-fluorophenyl)-7-methyl-N-(4-methyl-1-(methylamino)-1-oxopentan-2-yl)-5,6,7,8-tetrahydroimidazo[1,5-a]pyrazine-1-carboxamide]
  EC50: 10 to 100 nM

## Cc1noc([C@@H](NC(=O)c2nc(-c3ccccc3)n3c2CN(CC2CC2)CC3)C(C)(C)C)n1 [Compound 88, (S)-7-(cyclopropylmethyl)-N-(2,2-dimethyl-1-(3-methyl-1,2,4-oxadiazol-5-yl)propyl)-3-phenyl-5,6,7,8-tetrahydroimidazo[1,5-a]pyrazine-1-carboxamide]
  EC50: 10 to 100 nM

## CNC(=O)[C@@H](NC(=O)c1nc(-c2ccc(-c3ccccc3)cc2)n2c1CN(C)CC2)C(C)(C)C [Compound 265, (S)-3-(biphenyl-4-yl)-N-(3,3-dimethyl-1-(methylamino)-1-oxobutan-2-yl)-7-methyl-5,6,7,8-tetrahydroimidazo[1,5-a]pyrazine-1-carboxamide]
  EC50: 10 to 100 nM

## Cc1ccc(-c2nc(C(=O)N[C@H](c3nc(C)no3)C(C)(C)C)c3n2CCCN(C)C3)c(F)c1 [Compound 522, (S)-N-(2,2-dimethyl-1-(3-methyl-1,2,4-oxadiazol-5-yl)propyl)-3-(2-fluoro-4-methylphenyl)-8-methyl-6,7,8,9-tetrahydro-5H-imidazo[1,5-a][1,4]diazepine-1-carboxamide]
  EC50: 10 to 100 nM

## COC(=O)N1CCn2c(-c3ccccc3)nc(C(=O)N[C@H](C)C3CCCCC3)c2C1 [Compound 185, (R)-methyl 1-(1-cyclohexylethylcarbamoyl)-3-phenyl-5,6-dihydroimidazo[1,5-a]pyrazine-7(8H)-carboxylate]
  EC50: 10 to 100 nM

## CNC(=O)[C@@H](NC(=O)c1nc(-c2ccccc2)n2c1CN(c1cccc(Cl)n1)CC2)C(C)(C)C [Compound 299, (S)-7-(6-chloropyridin-2-yl)-N-(3,3-dimethyl-1-(methylamino)-1-oxobutan-2-yl)-3-phenyl-5,6,7,8-tetrahydroimidazo[1,5-a]pyrazine-1-carboxamide]
  EC50: 10 to 100 nM

## COC(=O)N1CCn2c(-c3ccccc3)nc(C(=O)NC3C4(C)CCC(C4)C3(C)C)c2C1 (stereo not shown) [Compound 178, methyl 3-phenyl-1-(1,3,3-trimethylbicyclo[2.2.1]heptan-2-ylcarbamoyl)-5,6-dihydroimidazo[1,5-a]pyrazine-7(8H)-carboxylate]
  EC50: 10 to 100 nM

## CNC(=O)[C@@H](NC(=O)c1nc(-c2ccc(C(F)(F)F)cc2)n2c1CNCC2)C(C)(C)C [Compound 5, (S)-N-(3,3-dimethyl-1-(methylamino)-1-oxobutan-2-yl)-3-(4-(trifluoromethyl)phenyl)-5,6,7,8-tetrahydroimidazo[1,5-a]pyrazin-1-carboxamide]
  EC50: 10 to 100 nM

## Cc1ccc(-c2nc(C(=O)N[C@H](c3nc(C)no3)C(C)(C)C)c3n2CCCN(C(=O)OC(C)(C)C)C3)c(F)c1 [Compound 518, (S)-tert-butyl 1-(2,2-dimethyl-1-(3-methyl-1,2,4-oxadiazol-5-yl)propylcarbamoyl)-3-(2-fluoro-4-methylphenyl)-6,7-dihydro-5H-imidazo[1,5-a][1,4]diazepine-8(9H)-carboxylate]
  EC50: 10 to 100 nM

Source: patent US8431565B2 (priority 2007, dated 2013)
